In ChEMBL document CHEMBL4414621, “Thiohydantoin and Hydantoin Derivatives from the Roots of Armoracia rusticana and Their Neurotrophic and Anti-neuroinflammatory Activities” (J Nat Prod, 2019):
pIC50: −log10 of the molar value.

How the values were obtained:
C6 = test: Neuroprotective activity in rat C6 cells assessed as NGF secretion at 20 uM incubated for 24 hrs by ELISA relative to control; format: functional
[1] = Cytotoxicity against rat C6 cells assessed as cell viability at 20 uM incubated for 24 hrs by MTT assay relative to control; format: cell-based; conditions: read-out: Activity
BV-2 = test: Antineuroinflammatory activity against mouse BV2 cells assessed as inhibition in LPS-induced NO production preincubated for 30 mins followed b LPS addition and measured after 24 hr by griess reagent based assay; format: functional, cell-based

| Compound | Activity (C6) | viability at 24 h, 20 µM [1] | pIC50 (BV-2) |
| --- | --- | --- | --- |
| O=C1C2CCCN2C(=S)N1Cc1ccccc1 (stereo not drawn) | 105.88% | 109% | – |
| NC(=O)NCCc1ccccc1 | 105.82% | 107% | 4.49 |
| C=CCN1C(=O)[C@]2(O)CCCN2C1=S | 93.41% | 106% | – |
| O=C1N(CCc2ccccc2)C(=S)N2CCC[C@@]12O | 75.08% | 112% | – |
| C=CCN1C(=O)N2CCC[C@@]2(O)C1=O | 110.66% | 97.3% | – |
| O=C1[C@@H]2CCCN2C(=O)N1CCc1ccccc1 | 111.26% | 111% | – |
| C=CCN1C(=O)[C@@]2(O)CCCN2C1=S | 153.59% | 114% | – |
| CSC1=NC[C@]2(S1)C(=O)Nc1ccccc12 | 96.3% | 88.2% | – |
| O=C1N(CCc2ccccc2)C(=O)[C@]2(O)CCCN12 | 98.7% | 91.2% | – |
| O=C1N(CCc2ccccc2)C(=O)[C@@]2(O)CCCN12 | 115.13% | 106% | – |
| O=C1N(CCc2ccccc2)C(=S)N2CCC[C@]12O | 100.68% | 108% | – |
| C=CCN1C(=O)N2CCC[C@]2(O)C1=O | 141.99% | 100% | – |
| CCCCC/C=C/C(=O)CCc1ccc(O)c(OC)c1 [SHOGAOL] | 140.69% | 111% | – |
| CNC(=N)NCCC[C@H](N)C(=O)O [TILARGININE] | – | – | 4.66 |
